From PubChem BioAssay (NCI)
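In this assay, cells in 96-well plates receive the compound at five concentrations for 48 hours. Endpoints are linearly interpolated between the surrounding concentrations. GI50 = concentration required for 50% inhibition of growth. TGI is the concentration that stops growth completely.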

Key:
Test in all cases: inhibition of tumour cell growth, NCI panel, 48 h
SF-268 CNS = system: SF-268 CNS
IGROV1 ovarian = system: IGROV1 ovarian
SF-295 CNS = system: SF-295 CNS
T-47D breast = system: T-47D breast
M14 melanoma = system: M14 melanoma
LOX IMVI melanoma = system: LOX IMVI melanoma
COLO 205 colon = system: COLO 205 colon
ACHN renal = system: ACHN renal
SF-539 CNS = system: SF-539 CNS
HCT-15 colon = system: HCT-15 colon
DU-145 prostate = system: DU-145 prostate
HCT-116 colon = system: HCT-116 colon
HOP-92 NSCLC = system: HOP-92 NSCLC
A498 renal = system: A498 renal
SK-MEL-5 melanoma = system: SK-MEL-5 melanoma
OVCAR-4 ovarian = system: OVCAR-4 ovarian
UACC-62 melanoma = system: UACC-62 melanoma
786-0 renal = system: 786-0 renal
MDA-MB-435 = system: MDA-MB-435
MCF7 breast = system: MCF7 breast
OVCAR-3 ovarian = system: OVCAR-3 ovarian
UO-31 renal = system: UO-31 renal
PC-3 prostate = system: PC-3 prostate
TK-10 renal = system: TK-10 renal
SK-MEL-2 melanoma = system: SK-MEL-2 melanoma
KM12 colon = system: KM12 colon
HCC-2998 colon = system: HCC-2998 colon
RXF 393 renal = system: RXF 393 renal
NCI-H226 lung = system: NCI-H226 lung
SNB-19 CNS = system: SNB-19 CNS
NCI-H522 lung = system: NCI-H522 lung
K-562 leukemia = system: K-562 leukemia
EKVX NSCLC = system: EKVX NSCLC
HOP-62 NSCLC = system: HOP-62 NSCLC
BT-549 breast = system: BT-549 breast
SK-OV-3 ovarian = system: SK-OV-3 ovarian
U251 CNS = system: U251 CNS
SK-MEL-28 melanoma = system: SK-MEL-28 melanoma
OVCAR-8 ovarian = system: OVCAR-8 ovarian
SW-620 colon = system: SW-620 colon
HT29 colon = system: HT29 colon
SNB-75 CNS = system: SNB-75 CNS
MOLT-4 leukemia = system: MOLT-4 leukemia
RPMI-8226 leukemia = system: RPMI-8226 leukemia
A549 NSCLC = system: A549 NSCLC
NCI/ADR-RES ovarian = system: NCI/ADR-RES ovarian
NCI-H460 lung = system: NCI-H460 lung
MALME-3M melanoma = system: MALME-3M melanoma
NCI-H23 lung = system: NCI-H23 lung
UACC-257 melanoma = system: UACC-257 melanoma
OVCAR-5 ovarian = system: OVCAR-5 ovarian
HS 578T breast = system: HS 578T breast
SR leukemia = system: SR leukemia
CCRF-CEM leukemia = system: CCRF-CEM leukemia
HL-60(TB) leukemia = system: HL-60(TB) leukemia
MDA-MB-231 breast = system: MDA-MB-231 breast
CAKI-1 renal = system: CAKI-1 renal

## C#CC(=O)Nc1cccc(Nc2nc3c(c(NCc4ccccc4)n2)CCCC3)c1
SF-268 CNS
  GI50: 20.3 nM
  TGI: 0.0958 µM
IGROV1 ovarian
  GI50: < 10 nM
  TGI: 0.0598 µM
SF-295 CNS
  GI50: 15.2 nM
  TGI: 0.0361 µM
T-47D breast
  GI50: 964 nM
  TGI: 3.7 µM
M14 melanoma
  GI50: 261 nM
  TGI: 1.22 µM
LOX IMVI melanoma
  GI50: < 10 nM
  TGI: < 0.01 µM
COLO 205 colon
  GI50: 401 nM
  TGI: 1.14 µM
ACHN renal
  GI50: < 11.3 nM
  TGI: < 0.0317 µM
SF-539 CNS
  GI50: < 10 nM
  TGI: < 0.01 µM
HCT-15 colon
  GI50: 231 nM
  TGI: 1.14 µM
DU-145 prostate
  GI50: 446 nM
  TGI: 1.95 µM
HCT-116 colon
  GI50: 120 nM
  TGI: 0.291 µM
HOP-92 NSCLC
  GI50: < 10 nM
  TGI: < 0.01 µM
A498 renal
  GI50: 115 nM
  TGI: 0.918 µM
SK-MEL-5 melanoma
  GI50: 1120 nM
  TGI: 2.44 µM
OVCAR-4 ovarian
  GI50: 291 nM
  TGI: 1.02 µM
UACC-62 melanoma
  GI50: 85.1 nM
  TGI: 0.279 µM
786-0 renal
  GI50: < 10 nM
  TGI: < 0.01 µM
MDA-MB-435
  GI50: 1020 nM
  TGI: 2.24 µM
MCF7 breast
  GI50: 296 nM
  TGI: 1.81 µM
OVCAR-3 ovarian
  GI50: 42 nM
  TGI: 0.175 µM
UO-31 renal
  GI50: < 10 nM
  TGI: < 0.01 µM
PC-3 prostate
  GI50: < 10 nM
  TGI: 0.0344 µM
TK-10 renal
  GI50: 1490 nM
  TGI: 2.85 µM
SK-MEL-2 melanoma
  GI50: 543 nM
  TGI: 1.98 µM
KM12 colon
  GI50: 22.5 nM
  TGI: 0.337 µM
HCC-2998 colon
  GI50: 1360 nM
  TGI: 2.9 µM
RXF 393 renal
  GI50: 38.9 nM
  TGI: 239 nM
NCI-H226 lung
  GI50: 147 nM
  TGI: 0.551 µM
SNB-19 CNS
  GI50: 591 nM
  TGI: 1.98 µM
NCI-H522 lung
  GI50: < 10 nM
  TGI: < 0.01 µM
K-562 leukemia
  GI50: 1390 nM
  TGI: 5.96 µM
EKVX NSCLC
  GI50: 340 nM
  TGI: 1.99 µM
HOP-62 NSCLC
  GI50: 61.2 nM
  TGI: 0.435 µM
BT-549 breast
  GI50: 26.6 nM
  TGI: 0.0776 µM
SK-OV-3 ovarian
  GI50: 336 nM
  TGI: 0.793 µM
U251 CNS
  GI50: 20.8 nM
  TGI: 0.0776 µM
SK-MEL-28 melanoma
  GI50: 1490 nM
  TGI: 2.97 µM
OVCAR-8 ovarian
  GI50: 14.4 nM
  TGI: 1120 nM

## CSC1(CC(=O)N(C)C)C(=O)Nc2ccccc21 (stereo unspecified)
SF-268 CNS
  TGI: > 100 µM
IGROV1 ovarian
  TGI: > 100 µM
SW-620 colon
  TGI: > 100 µM
SF-295 CNS
  TGI: > 100 µM
T-47D breast
  TGI: > 100 µM
M14 melanoma
  TGI: > 100 µM
HT29 colon
  TGI: > 100 µM
LOX IMVI melanoma
  TGI: > 100 µM
SNB-75 CNS
  TGI: > 100 µM
COLO 205 colon
  TGI: > 100 µM
ACHN renal
  TGI: > 100 µM
MOLT-4 leukemia
  TGI: > 100 µM
RPMI-8226 leukemia
  TGI: > 100 µM
SF-539 CNS
  TGI: > 100 µM
HCT-15 colon
  TGI: > 100 µM
A549 NSCLC
  TGI: > 100 µM
DU-145 prostate
  TGI: > 100 µM
HCT-116 colon
  TGI: > 100 µM
A498 renal
  TGI: > 100 µM
SK-MEL-5 melanoma
  TGI: > 100 µM
OVCAR-4 ovarian
  TGI: > 100 µM
NCI/ADR-RES ovarian
  TGI: > 100 µM
UACC-62 melanoma
  TGI: > 100 µM
786-0 renal
  TGI: > 100 µM
MDA-MB-435
  TGI: > 100 µM
MCF7 breast
  TGI: > 100 µM
OVCAR-3 ovarian
  TGI: > 100 µM
UO-31 renal
  TGI: > 100 µM
PC-3 prostate
  TGI: > 100 µM
TK-10 renal
  TGI: > 100 µM
SK-MEL-2 melanoma
  TGI: > 100 µM
KM12 colon
  TGI: > 100 µM
HCC-2998 colon
  TGI: > 100 µM
NCI-H460 lung
  TGI: > 100 µM
NCI-H226 lung
  TGI: > 100 µM
MALME-3M melanoma
  TGI: > 100 µM
SNB-19 CNS
  TGI: > 100 µM
K-562 leukemia
  TGI: > 100 µM
EKVX NSCLC
  TGI: > 100 µM
NCI-H23 lung
  TGI: > 100 µM
HOP-62 NSCLC
  TGI: > 100 µM
BT-549 breast
  TGI: > 100 µM
UACC-257 melanoma
  TGI: > 100 µM
SK-OV-3 ovarian
  TGI: > 100 µM
U251 CNS
  TGI: > 100 µM
OVCAR-5 ovarian
  TGI: > 100 µM
SK-MEL-28 melanoma
  TGI: > 100 µM
HS 578T breast
  TGI: > 100 µM
SR leukemia
  TGI: > 100 µM

## CCOC(=O)c1nc2c(Cl)c3ncccc3cc2[nH]c1=O
SF-268 CNS
  TGI: > 100 µM
IGROV1 ovarian
  TGI: > 100 µM
CCRF-CEM leukemia
  TGI: > 100 µM
SW-620 colon
  TGI: > 100 µM
SF-295 CNS
  TGI: > 100 µM
M14 melanoma
  TGI: > 100 µM
HT29 colon
  TGI: > 100 µM
SNB-75 CNS
  TGI: > 100 µM
COLO 205 colon
  TGI: > 100 µM
ACHN renal
  TGI: > 100 µM
MOLT-4 leukemia
  TGI: 45.6 µM
SF-539 CNS
  TGI: > 100 µM
HCT-15 colon
  TGI: 56.5 µM
A549 NSCLC
  TGI: > 100 µM
HL-60(TB) leukemia
  TGI: > 100 µM
DU-145 prostate
  TGI: > 100 µM
HCT-116 colon
  TGI: > 100 µM
HOP-92 NSCLC
  TGI: > 100 µM
A498 renal
  TGI: > 100 µM
SK-MEL-5 melanoma
  TGI: 22.7 µM
OVCAR-4 ovarian
  TGI: > 100 µM
MDA-MB-231 breast
  TGI: > 100 µM
NCI/ADR-RES ovarian
  TGI: > 100 µM
UACC-62 melanoma
  TGI: 50.4 µM
786-0 renal
  TGI: > 100 µM
MDA-MB-435
  TGI: > 100 µM
MCF7 breast
  TGI: > 100 µM
OVCAR-3 ovarian
  TGI: > 100 µM
UO-31 renal
  TGI: > 100 µM
PC-3 prostate
  TGI: > 100 µM
TK-10 renal
  TGI: > 100 µM
SK-MEL-2 melanoma
  TGI: > 100 µM
KM12 colon
  TGI: > 100 µM
HCC-2998 colon
  TGI: 43.8 µM
NCI-H460 lung
  TGI: 65.8 µM
RXF 393 renal
  TGI: > 100000 nM
NCI-H226 lung
  TGI: > 100 µM
MALME-3M melanoma
  TGI: > 100 µM
SNB-19 CNS
  TGI: > 100 µM
CAKI-1 renal
  TGI: > 100 µM
NCI-H522 lung
  TGI: > 100 µM
K-562 leukemia
  TGI: > 100 µM
EKVX NSCLC
  TGI: > 100 µM
NCI-H23 lung
  TGI: > 100 µM
HOP-62 NSCLC
  TGI: > 100 µM
BT-549 breast
  TGI: 94.7 µM
UACC-257 melanoma
  TGI: > 100 µM
SK-OV-3 ovarian
  TGI: > 100 µM
U251 CNS
  TGI: > 100 µM
OVCAR-5 ovarian
  TGI: > 100 µM
SK-MEL-28 melanoma
  TGI: > 100 µM
OVCAR-8 ovarian
  TGI: > 100000 nM
HS 578T breast
  TGI: > 100 µM
SR leukemia
  TGI: > 100 µM
